Results from patent publication US20110034426A1, “Method of Preventing Renal Disease and Treating Symptoms Thereof” (WISCONSIN ALUMNI RESEARCH FOUNDATION, priority 2009, published 2011).
“Also recorded” adds a separate entry of the source.

Key:
MRL/MpJ-Fas^lpr/J mice [1] = test: Splenomegaly (spleen mass and histology) in MRL/lpr mice; format: in vivo
Description: (§1) Mice. […] Water was given ad libitum.

MRL/MpJ-Fas^lpr/J mice [2] = details: 300 ng per day 1,25(OH)2D3 in diet, earlier thesis work (Kim 2009); cited from earlier work
MRL/MpJ-Fas^lpr/J mice [3] = test: Proteinuria in MRL/lpr mouse model of systemic lupus erythematosus / lupus nephritis; format: in vivo
Protocol: as §1
(§2) Proteinuria measurements. Proteinuria measurements were performed by putting gentle pressure on the bladder for spot urine analysis on a clean surface with a semi-quantitative dipstick (Combistix, Bayer). Mice were determined to have proteinuria when urinary protein output was 100 mg/dL or more. Urine was collected by placing the animals in metabolic cages and performing two-24 hr collections. Total protein was measured using a Bradford assay. (MM Bradford, Analytical Biochemistry 72: 248-254, 1976).

[4] = Serum calcium in treated MRL/lpr mice
Protocol: Mice. All mice used in this study were female MRL/MpJ-Fas^lpr/J mice either purchased directly or originally purchased from The Jackson Laboratory and bred in house. All mice involved in each study were age matched to the week of birth. All animal handling was performed according to protocol A1205 approved by the University of Wisconsin—Madison Institutional Animal Care and Use Committee. From weaning, female mice were placed on purified diet containing 0.47% calcium without 2MD until treatment initiation. The purified powder diet was prepared in agar form and administered 3 times a week. 2MD was administered through diet based on 5 g daily diet consumption per mouse. Water was given ad libitum. Blood was taken via retro-orbital bleeding method under isoflurane anesthetic. Serum was isolated from blood samples, frozen and subsequently analyzed with a benchtop clinical chemistry analyzer (Pentra 400, Horiba ABX).

[5] = Growth, body weight and clinical signs in treated MRL/lpr mice; format: in vivo
Description: as §1

NOD mice = test: NOD Mouse Model of Type I Diabetic Nephropathy; format: in vivo; details: 2MD in the diet
Protocol: as §2
Disease Induction. NOD mice (breeder pairs) were obtained from JAX laboratories (Bar Harbor, Me.). Weanling mice were placed on chow diet (5K52 Lab Diets) or purified diet (Suda et al., Purified Rodent Diet-Diet 11) and allowed to spontaneously develop diabetes (two consecutive measurements of plasma glucose >[…]). Water and diet were provided ad libitum.
Animal Husbandry. Animals were housed in autoclaved, plastic shoe-box style cages with corn cob bedding in groups of 2-4 animals/cage. Once mice were confirmed diabetic, the cages were changed daily. The animal rooms were maintained at a temperature of 68 to 72° F. and a relative humidity of 25 to 75%. […]
Treatment Groups. […] Once animals were determined to be diabetic, animals were assigned to treatment groups (6-12/group) so that each group would have the same average plasma glucose level at enrollment. […]

MRL/MpJ-Fas^lpr/J mice [6] = test: Kidney and heart histology in MRL/lpr mice; format: in vivo
Protocol: as §1
Histology. Half of a kidney was preserved in cold zinc formalin fixative, embedded in paraffin, and sectioned 4 μm thick. Hematoxylin and eosin (H&E) and Masson-Goldner's trichrome were used to study histological differences between kidney samples. Von Kossa staining was performed on whole heart sections (processed as described above) to determine heart calcification. Sectioning and staining was performed by the University of Wisconsin—Madison McArdle Histology Laboratory. Micrographs in the figures were taken by an Olympus BH-2 microscope and Nikon Coolpix 990 digital camera.

[7] = test system: ⅚ths Nephrectomy Rat Model; test: ⅚ths Nephrectomy Rat Model (uremic rat); format: in vivo, Sprague-Dawley rats; details: uremic rats
Description: ⅚ths Nephrectomy Rat Model. Disease Induction. Weanling, male Sprague-Dawley rats were obtained from Harlan (Madison, Wis.). Following a 10-13 day acclimation period, the animals had two-thirds of one kidney removed. After a week, the other entire kidney was removed. The animals were then switched from a chow diet to a purified rodent diet (Suda et al., Purified Rodent Diet-Diet 11) containing 0.6% Ca and 0.9% phosphorus and fat soluble vitamins A, D, E and K. Water and diet were provided ad libitum.
Animal Husbandry. Animals were housed in suspended, plastic shoe-box style cages with corn cob bedding (prior to surgery) or in stainless steel, wire-bottom cages (approximately one week after surgery). The animal rooms were maintained at a temperature of 68 to 72° F. and a relative humidity of 25 to 75%. The holding rooms were set to provide 12 hours of light per day.
Treatment Groups. Approximately four weeks after the second surgery, animals were assigned to treatment groups (14-15 animals/group) so that each group had the same average PTH level.
Dose Preparation (Vehicle Formulation). The negative control material was prepared by volumetrically measuring ethanol (5%) and Neobee oil, mixing and then placing in storage at 2 to 8° C.
Dose Preparation (2MD Formulation). 2MD formulations (DP001, Sigma Aldrich Fine Chemicals, Madison, Wis.) were prepared by first determining the concentration of an ethanol stock solution using UV spectrophotometry (extinction coefficient=42,000; max=252 nm). The solutions were then volumetrically added to Neobee oil so that there was no more than 5% ethanol in the final solution. If necessary, additional ethanol was added to bring the final ethanol amount to 5%. The solution was mixed and stored at 2 to 8° C.
Dose Administration Method. Both vehicle and 2MD were administered orally to the back of the tongue at 0.5 ml/kg body weight once daily for 8 weeks.
Serum Parathyroid Hormone (PTH) Levels. By “serum PTH levels” we mean the amount of PTH released by the parathyroid gland. PTH is the most important regulator of the body's calcium and phosphorus levels, and is controlled by the level of calcium in the blood. Low blood calcium levels cause increased PTH to be released, while high blood calcium levels inhibit PTH release. Normal values are 10-55 picograms per milliliter (pg/mL). Four weeks after surgery and 4 and 8 weeks after treatment initiation, blood was collected from the tail artery and the concentration of bioactive serum PTH was measured using the rat BioActive Intact PTH ELISA Kit from Immutopics, Inc. (San Clemente, Calif.).
Serum Calcium Analysis. Four weeks following surgery and 4 and 8 weeks after treatment started, blood was collected from the tail artery of each experimental animal. The blood was allowed to coagulate at room temperature and then centrifuged at 3000×g for 15 minutes. The serum was transferred to a polypropylene tube and stored frozen at −20° C. The level of calcium was determined by diluting the serum into 0.1% lanthum chloride and measuring the absorbance on an atomic absorption spectrophotometer (Perkin Elmer Model 3110, Shelton, Conn.).
Phosphorus Assay. Four weeks after surgery and 8 weeks after treatment started, blood was collected from the tail artery of each experimental animal. The blood was allowed to coagulate at room temperature and then centrifuged at 3000×g for 15 minutes. The serum was transferred to a polypropylene tube and stored frozen at −20° C. The level of phosphorus was determined using a clinical analyzer (Pentra 400, Horiba ABX Diagnostics—France; UV method using phosphomolybdate).
Creatinine Assay. Measuring serum creatinine levels is a useful and inexpensive method of evaluating renal dysfunction. Creatinine is a non-protein waste product of […] metabolism by skeletal muscle tissue. Creatinine production is continuous and is proportional to muscle mass. […]

[8] = daily oral 2MD for 8 weeks vs vehicle
[9] = daily oral 2MD vs vehicle, six weeks after treatment initiation

Structure (SMILES): C=C1/C(=C\C=C2/CCC[C@]3(C)[C@@H]([C@H](C)CCCC(C)(C)O)CC[C@@H]23)C[C@@H](O)C[C@@H]1O [1,25(OH)2D3, 1α,25-dihydroxyvitamin D3, reference compound]
- spleen mass reduction (MRL/MpJ-Fas^lpr/J mice [1]; 150 ng per day 1,25(OH)2D3): comparable to that achieved with 5 ng 2MD treatment
- spleen histology, compared with 5 ng 2MD (MRL/MpJ-Fas^lpr/J mice [1]; 300 ng 1,25(OH)2D3): better retention of normal spleen histology
- spleen mass normalized to body weight (MRL/MpJ-Fas^lpr/J mice [1]; 300 ng 1,25(OH)2D3): statistically significant reduction
- spleen mass, compared with 5 ng 2MD (MRL/MpJ-Fas^lpr/J mice [1]; 300 ng 1,25(OH)2D3): greater reduction in spleen mass
- proteinuria (MRL/MpJ-Fas^lpr/J mice [2]): completely prevents proteinuria
- prevention of proteinuria (MRL/MpJ-Fas^lpr/J mice [3]; 300 ng 1,25(OH)2D3 compared with 5 ng 2MD): equally effective

Structure (SMILES): C=C1[C@H](O)CC(=C/C=C2\CCC[C@@]3(C)C2CCC3[C@@H](C)CCCC(C)(C)O)C[C@H]1O (stereo partly drawn) [2MD, 2-methylene-19-nor-(20S)-1α,25-(OH)2D3]
- serum calcium levels ([4]; 1 ng 2MD, MRL/lpr mice, throughout the study): within the physiologically normal range
- serum calcium levels ([4]; 5 ng 2MD per mouse per day, MRL/lpr mice): without dramatically increasing
- serum calcium, highest measured point ([4]; 5 ng 2MD, MRL/lpr mice): 12.4 mg/dL
- serum calcium at study termination ([4]; 5 ng 2MD, MRL/lpr mice, week 19): 10.9 mg/dL
- serum calcium levels ([4]; 2MD treatment (0.5, 1, 5 ng), week 10 to 19, MRL/lpr mice): mildly elevated
- spleen histology (white pulp structure) (MRL/MpJ-Fas^lpr/J mice [1]; 5 ng 2MD): helps retain the sheath-like structure; also recorded: retains some of the sheath structure
- splenomegaly / spleen weight (also normalized to body weight) (MRL/MpJ-Fas^lpr/J mice [1]; 5 ng 2MD vs 0 ng control, p<0.05): significantly reduced splenomegaly; also recorded: significantly decreased
- hypercalcemia and associated effects including weight loss, compared with 150 ng 1,25(OH)2D3 ([5]; 1 ng 2MD): significantly less
- clinical symptoms of hypercalcemia ([5]; 5 ng 2MD): symptoms of hypercalcemia including unkempt fur and nervousness
- growth / weight loss ([5]; 5 ng 2MD): adversely affected; also recorded: Weight loss is most severe
- growth ([5]; 0.5 and 1 ng 2MD): slight impact on growth; also recorded: very mild
- lethargy or morbidity ([5]; any 2MD dose group (0.5, 1, 5 ng)): no lethargy or morbidity was observed
- overall urine volume output (NOD mice): reduced; also recorded: marked improvement
- total urinary protein excretion (NOD mice): reduced; also recorded: marked improvement
- perivascular infiltration (MRL/MpJ-Fas^lpr/J mice [6]; 5 ng 2MD vs control): slight decrease; also recorded: noticeably decreased
- tubulointerstitial infiltration of leukocytes (MRL/MpJ-Fas^lpr/J mice [6]; 5 ng 2MD vs control): noticeable decrease; also recorded: substantially less
- glomerular damage (sclerosis, fibrosis, basement membrane thickening, mesangial proliferation) (MRL/MpJ-Fas^lpr/J mice [6]; 5 ng 2MD vs control, kidney histology): prevented
- interstitial fibrosis (fibrotic staining) (MRL/MpJ-Fas^lpr/J mice [6]; 5 ng 2MD vs control, trichrome stain): significantly less; also recorded: the extent and frequency was much less
- calcification in kidneys and hearts (MRL/MpJ-Fas^lpr/J mice [6]; 2MD treated MRL/lpr mice): lack of evidence of calcification; also recorded: absence of calcification artifacts
- all markers of kidney failure ([7]; 2MD treatment): improved
- serum creatinine [7, 8]: lower levels
- serum phosphorus [7, 8]: lower levels
- urinary protein excretion [7, 9]: lower levels
- urinary volume [7, 9]: lower levels
- bone mineral density (total body BMD) ([7]; daily oral 2MD): improved bone mineral densities; also recorded: increased bone mineral density
- overall survival ([7]; daily oral 2MD): increased overall survival
- serum PTH levels ([7]; daily oral 2MD): decreased PTH levels; also recorded: lower PTH levels
- total serum calcium ([7]; dose levels of 2MD giving the positive effects): do not significantly raise serum calcium
- reduction in proteinuria incidence (MRL/MpJ-Fas^lpr/J mice [3]; 1 ng 2MD per mouse per day in diet, MRL/lpr mice): > 60%
- mean time of onset of proteinuria (MRL/MpJ-Fas^lpr/J mice [3]; 1 ng 2MD, MRL/lpr mice): delayed mean time of onset of proteinuria
- proteinuria (terminal incidence) (MRL/MpJ-Fas^lpr/J mice [3]; 5 ng 2MD/mouse/day in diet, MRL/lpr mice, treatment week 10 to 19): completely preventing proteinuria; also recorded: completely prevented; also recorded: sufficient to prevent proteinuria
